Reference: patent publication US20060252807A1, “Novel ortho-terphenyl inhibitors of p38 kinase and methods of treating inflammatory disorders” (Kalypsys, Inc., priority 2005, published 2006)

Target: T1, active p38 alpha enzyme (Upstate Biotechnology) (Homo sapiens, UniProt Q16539)
T1 construct: purchased Upstate Biotechnology
Experiment: p38α biochemical assay (ATP turnover, luminescent detection, Cambrex PKlight)
Settings: p38α biochemical assay, Table 1 Biological Activity
In short: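 Compounds in DMSO are added to active p38 alpha with MapkapK2 whole protein and ATP at 1.4 uM final. Reactions then run for 2 hours at 30C. A luminescent reagent is added last to quantify total ATP consumed.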

T1 sequence (Q16539 whole entry): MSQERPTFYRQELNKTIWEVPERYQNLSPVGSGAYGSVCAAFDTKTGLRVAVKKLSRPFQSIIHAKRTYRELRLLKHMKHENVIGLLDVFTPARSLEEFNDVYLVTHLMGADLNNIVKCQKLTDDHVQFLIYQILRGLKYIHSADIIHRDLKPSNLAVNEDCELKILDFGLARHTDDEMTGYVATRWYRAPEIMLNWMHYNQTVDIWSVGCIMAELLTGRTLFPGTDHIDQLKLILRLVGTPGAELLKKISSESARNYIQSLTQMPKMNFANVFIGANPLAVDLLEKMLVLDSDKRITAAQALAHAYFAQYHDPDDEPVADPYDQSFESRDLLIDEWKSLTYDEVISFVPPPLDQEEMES

| Structure (SMILES) | IC50 [nM] |
| --- | --- |
| CC(C)NC(=O)c1csc(-c2oc(CN3CCN(C(=O)c4cccnc4)CC3)nc2-c2ccc(F)cc2)n1 [Example 349] | > 1000 |
| CC(C)NC(=O)c1csc(-c2oc(CN3CCN(C(=O)c4ccncc4)CC3)nc2-c2ccc(F)cc2)n1 [Example 350] | ≤ 1000 |
| CC(C)NC(=O)c1csc(-c2oc(CN3CCN(C(=O)c4ccccn4)CC3)nc2-c2ccc(F)cc2)n1 [Example 351] | > 1000 |
| CC(C)NC(=O)c1csc(-c2oc(CN3CCN(C(=O)C(O)CCl)CC3)nc2-c2ccc(F)cc2)n1 (stereo not drawn) [Example 352] | > 1000 |
| Cc1cc(C(=O)N2CCN(Cc3nc(-c4ccc(F)cc4)c(-c4nc(C(=O)NC(C)C)cs4)o3)CC2)n[nH]1 [Example 353] | ≤ 1000 |
| CC(C)NC(=O)c1csc(-c2oc(CN3CCN(C(=O)c4cn(C)cn4)CC3)nc2-c2ccc(F)cc2)n1 [Example 354] | ≤ 1000 |
| CC(C)NC(=O)c1csc(-c2oc(CN3CCN(C(=O)C4CCCCC4)CC3)nc2-c2ccc(F)cc2)n1 [Example 355] | ≤ 1000 |
| CC(C)NC(=O)c1csc(-c2oc(CN3CCN(C(=O)c4cscn4)CC3)nc2-c2ccc(F)cc2)n1 [Example 356] | ≤ 1000 |
| CCOC(=O)CC(=O)N1CCN(Cc2nc(-c3ccc(F)cc3)c(-c3nc(C(=O)NC(C)C)cs3)o2)CC1 [Example 357] | ≤ 1000 |
| Cc1cccc(C(=O)N2CCN(Cc3nc(-c4ccc(F)cc4)c(-c4nc(C(=O)NC(C)C)cs4)o3)CC2)c1 [Example 358] | > 1000 |
| Cc1ccccc1C(=O)N1CCN(Cc2nc(-c3ccc(F)cc3)c(-c3nc(C(=O)NC(C)C)cs3)o2)CC1 [Example 359] | > 1000 |
| Cc1ccc(C(=O)N2CCN(Cc3nc(-c4ccc(F)cc4)c(-c4nc(C(=O)NC(C)C)cs4)o3)CC2)cc1 [Example 360] | > 1000 |
| CC(C)NC(=O)c1csc(-c2oc(CN3CCN(C(=O)c4cccc(O)c4)CC3)nc2-c2ccc(F)cc2)n1 [Example 361] | > 1000 |
| CC(C)NC(=O)c1csc(-c2oc(CN3CCN(C(=O)c4ccccc4O)CC3)nc2-c2ccc(F)cc2)n1 [Example 362] | ≤ 1000 |
| CC(C)NC(=O)c1csc(-c2oc(CN3CCN(C(=O)c4ccc(F)cc4)CC3)nc2-c2ccc(F)cc2)n1 [Example 363] | > 1000 |
| CC(C)NC(=O)c1csc(-c2oc(CN3CCN(C(=O)c4cccc(F)c4)CC3)nc2-c2ccc(F)cc2)n1 [Example 364] | > 1000 |
| CCCCCCCC(=O)N1CCN(Cc2nc(-c3ccc(F)cc3)c(-c3nc(C(=O)NC(C)C)cs3)o2)CC1 [Example 365] | > 1000 |
| CC(C)NC(=O)c1csc(-c2oc(CN3CCN(C(=O)c4ccc(C#N)cc4)CC3)nc2-c2ccc(F)cc2)n1 [Example 366] | > 1000 |
| CC(C)NC(=O)c1csc(-c2oc(CN3CCN(C(=O)c4cccc(C#N)c4)CC3)nc2-c2ccc(F)cc2)n1 [Example 367] | > 1000 |
| CC(C)NC(=O)c1csc(-c2oc(CN3CCN(C(=O)/C=C/c4ccccc4)CC3)nc2-c2ccc(F)cc2)n1 [Example 368] | > 1000 |
| CC(C)NC(=O)c1csc(-c2oc(CN3CCN(C(=O)c4ccccc4C=O)CC3)nc2-c2ccc(F)cc2)n1 [Example 369] | ≤ 1000 |
| CC(C)NC(=O)c1csc(-c2oc(CN3CCN(C(=O)c4ccc(C=O)cc4)CC3)nc2-c2ccc(F)cc2)n1 [Example 370] | > 1000 |

| Structure (SMILES) | IC50 [nM] |
| --- | --- |
| Cc1ccc(C(=O)N2CCN(Cc3nc(-c4ccc(F)cc4)c(-c4nc(C(=O)NC(C)C)cs4)o3)CC2)c(C)c1 [Example 371] | ≤ 1000 |
| Cc1ccccc1CC(=O)N1CCN(Cc2nc(-c3ccc(F)cc3)c(-c3nc(C(=O)NC(C)C)cs3)o2)CC1 [Example 372] | > 1000 |
| Cc1cccc(C(=O)N2CCN(Cc3nc(-c4ccc(F)cc4)c(-c4nc(C(=O)NC(C)C)cs4)o3)CC2)c1C [Example 373] | > 1000 |
| Cc1ccc(C)c(C(=O)N2CCN(Cc3nc(-c4ccc(F)cc4)c(-c4nc(C(=O)NC(C)C)cs4)o3)CC2)c1 [Example 374] | > 1000 |
| Cc1cc(C)cc(C(=O)N2CCN(Cc3nc(-c4ccc(F)cc4)c(-c4nc(C(=O)NC(C)C)cs4)o3)CC2)c1 [Example 375] | > 1000 |
| Cc1ccc(C(=O)N2CCN(Cc3nc(-c4ccc(F)cc4)c(-c4nc(C(=O)NC(C)C)cs4)o3)CC2)cc1C [Example 376] | > 1000 |
| CCc1ccc(C(=O)N2CCN(Cc3nc(-c4ccc(F)cc4)c(-c4nc(C(=O)NC(C)C)cs4)o3)CC2)cc1 [Example 377] | > 1000 |
| COc1ccc(C(=O)N2CCN(Cc3nc(-c4ccc(F)cc4)c(-c4nc(C(=O)NC(C)C)cs4)o3)CC2)cc1 [Example 378] | > 1000 |
| Cc1cccc(C(=O)N2CCN(Cc3nc(-c4ccc(F)cc4)c(-c4nc(C(=O)NC(C)C)cs4)o3)CC2)c1O [Example 379] | ≤ 1000 |
| CC(C)NC(=O)c1csc(-c2oc(CN3CCN(C(=O)Cc4ccccc4O)CC3)nc2-c2ccc(F)cc2)n1 [Example 380] | ≤ 1000 |
| CC(C)NC(=O)c1csc(-c2oc(CN3CCN(C(=O)Cc4cccc(O)c4)CC3)nc2-c2ccc(F)cc2)n1 [Example 381] | ≤ 1000 |
| Cc1ccc(O)c(C(=O)N2CCN(Cc3nc(-c4ccc(F)cc4)c(-c4nc(C(=O)NC(C)C)cs4)o3)CC2)c1 [Example 382] | ≤ 1000 |
| CC(C)NC(=O)c1csc(-c2oc(CN3CCN(C(=O)c4cc(O)ccc4O)CC3)nc2-c2ccc(F)cc2)n1 [Example 383] | ≤ 1000 |
| CC(C)NC(=O)c1csc(-c2oc(CN3CCN(C(=O)c4cccc(O)c4O)CC3)nc2-c2ccc(F)cc2)n1 [Example 384] | ≤ 1000 |
| CC(C)NC(=O)c1csc(-c2oc(CN3CCN(C(=O)c4ccc(O)cc4O)CC3)nc2-c2ccc(F)cc2)n1 [Example 385] | ≤ 1000 |
| Cc1ccc(C(=O)N2CCN(Cc3nc(-c4ccc(F)cc4)c(-c4nc(C(=O)NC(C)C)cs4)o3)CC2)cc1F [Example 386] | > 1000 |
| Cc1ccc(F)cc1C(=O)N1CCN(Cc2nc(-c3ccc(F)cc3)c(-c3nc(C(=O)NC(C)C)cs3)o2)CC1 [Example 387] | > 1000 |
| CC(C)NC(=O)c1csc(-c2oc(CN3CCN(C(=O)c4ccccc4Cl)CC3)nc2-c2ccc(F)cc2)n1 [Example 388] | > 1000 |
| CC(C)NC(=O)c1csc(-c2oc(CN3CCN(C(=O)c4ccc(Cl)nc4)CC3)nc2-c2ccc(F)cc2)n1 [Example 389] | > 1000 |
| CC(C)NC(=O)c1csc(-c2oc(CN3CCN(C(=O)c4cccnc4Cl)CC3)nc2-c2ccc(F)cc2)n1 [Example 390] | > 1000 |
| CC(C)NC(=O)c1csc(-c2oc(CN3CCN(C(=O)c4ccnc(Cl)c4)CC3)nc2-c2ccc(F)cc2)n1 [Example 391] | > 1000 |
| CC(C)NC(=O)c1csc(-c2oc(CN3CCN(C(=O)c4cc(Cl)ccn4)CC3)nc2-c2ccc(F)cc2)n1 [Example 392] | > 1000 |

| Structure (SMILES) | IC50 [nM] |
| --- | --- |
| CC(C)NC(=O)c1csc(-c2oc(CN3CCN(C(=O)c4ccncc4Cl)CC3)nc2-c2ccc(F)cc2)n1 [Example 393] | > 1000 |
| CC(C)NC(=O)c1csc(-c2oc(CN3CCN(C(=O)c4c(F)cccc4F)CC3)nc2-c2ccc(F)cc2)n1 [Example 394] | > 1000 |
| CC(C)NC(=O)c1csc(-c2oc(CN3CCN(C(=O)c4cccc(F)c4F)CC3)nc2-c2ccc(F)cc2)n1 [Example 395] | > 1000 |
| CC(C)NC(=O)c1csc(-c2oc(CN3CCN(C(=O)c4ccc(F)cc4F)CC3)nc2-c2ccc(F)cc2)n1 [Example 396] | > 1000 |
| CC(C)NC(=O)c1csc(-c2oc(CN3CCN(C(=O)c4cc(F)cc(F)c4)CC3)nc2-c2ccc(F)cc2)n1 [Example 397] | > 1000 |
| CC(C)NC(=O)c1csc(-c2oc(CN3CCN(C(=O)c4ccc(F)c(F)c4)CC3)nc2-c2ccc(F)cc2)n1 [Example 398] | > 1000 |
| CC(CC(=O)N1CCN(Cc2nc(-c3ccc(F)cc3)c(-c3nc(C(=O)NC(C)C)cs3)o2)CC1)CC(C)(C)C (stereo not drawn) [Example 399] | ≤ 1000 |
| CC(C)NC(=O)c1csc(-c2oc(CN3CCN(C(=O)c4cc5ccccc5o4)CC3)nc2-c2ccc(F)cc2)n1 [Example 400] | > 1000 |
| CC(C)NC(=O)c1csc(-c2oc(CN3CCN(C(=O)C4CCc5ccccc54)CC3)nc2-c2ccc(F)cc2)n1 (stereo not drawn) [Example 401] | ≤ 1000 |
| CC(C)NC(=O)c1csc(-c2oc(CN3CCN(C(=O)C(Cl)(Cl)Cl)CC3)nc2-c2ccc(F)cc2)n1 [Example 402] | ≤ 1000 |
| CC(C)NC(=O)c1csc(-c2oc(CN3CCN(C(=O)/C=C/c4ccccc4O)CC3)nc2-c2ccc(F)cc2)n1 [Example 403] | ≤ 1000 |
| CC(=O)c1ccc(C(=O)N2CCN(Cc3nc(-c4ccc(F)cc4)c(-c4nc(C(=O)NC(C)C)cs4)o3)CC2)cc1 [Example 404] | > 1000 |
| CC(C)NC(=O)c1csc(-c2oc(CN3CCN(C(=O)/C=C/c4cccc(O)c4)CC3)nc2-c2ccc(F)cc2)n1 [Example 405] | > 1000 |
| CC(=O)c1cccc(C(=O)N2CCN(Cc3nc(-c4ccc(F)cc4)c(-c4nc(C(=O)NC(C)C)cs4)o3)CC2)c1 [Example 406] | > 1000 |
| CC(=O)c1ccccc1C(=O)N1CCN(Cc2nc(-c3ccc(F)cc3)c(-c3nc(C(=O)NC(C)C)cs3)o2)CC1 [Example 407] | ≤ 1000 |
| CC(C)NC(=O)c1csc(-c2oc(CN3CCN(C(=O)c4ccc(C(C)C)cc4)CC3)nc2-c2ccc(F)cc2)n1 [Example 408] | > 1000 |
| Cc1ccccc1CCC(=O)N1CCN(Cc2nc(-c3ccc(F)cc3)c(-c3nc(C(=O)NC(C)C)cs3)o2)CC1 [Example 409] | ≤ 1000 |
| Cc1cccc(CCC(=O)N2CCN(Cc3nc(-c4ccc(F)cc4)c(-c4nc(C(=O)NC(C)C)cs4)o3)CC2)c1 [Example 410] | ≤ 1000 |
| CCC(C(=O)N1CCN(Cc2nc(-c3ccc(F)cc3)c(-c3nc(C(=O)NC(C)C)cs3)o2)CC1)c1ccccc1 (stereo not drawn) [Example 411] | > 1000 |
| Cc1cc(C)c(C(=O)N2CCN(Cc3nc(-c4ccc(F)cc4)c(-c4nc(C(=O)NC(C)C)cs4)o3)CC2)c(C)c1 [Example 412] | ≤ 1000 |
| CCCc1ccc(C(=O)N2CCN(Cc3nc(-c4ccc(F)cc4)c(-c4nc(C(=O)NC(C)C)cs4)o3)CC2)cc1 [Example 413] | > 1000 |
| CC(C)NC(=O)c1csc(-c2oc(CN3CCN(C(=O)c4ccc5c(c4)OCO5)CC3)nc2-c2ccc(F)cc2)n1 [Example 414] | > 1000 |
